These results are taken from patent publication US12605539B2, “Methods and systems for delivering drugs through skin of a body” (PASSPORT TECHNOLOGIES, INC., priority 2019, dated 2026).

What all share (format): in vivo, hairless Guinea pigs
The nature of data set [1]: Blood concentration of polysaccharide (Fondaparinux) after microporation patch (FIG. 13). To be noted: 4 ms pulses. The method, then:
The patch 102 used for FIG. 13 graphs 1300 and 1320 has a nonwoven matrix, a thickness of 180 μm, weight of 18 g/m^2, WHC of 17 mg/cm^2, a drug of 0.01 mg/cm^2, and a total solids level of 6.1 mg/cm^2. An energy pulse of 6.3 mJ and 5.2 mJ per filament to create between about 200 and 400 pathways via microporation having a 1 cm^2 treated area of between about 5 and 10% per square centimeter of skin, respectively.
(§1) The graph 1300 includes the concentration of the polysacharride (for example, Fondaparinux) in micrograms/milliliter (μg/mL) along the y-axis and time in hours (hr) along the x-axis. […] The line 1302 represents the patch 102 having a formulation of 2.5 mg of the polysacharride applied with the patch 102 and microporation parameters described above. The line 1304 represents the patch 102 having a formulation of 5.0 mg of the polysacharride applied with the patch 102 and microporation parameters described above. The line 1306 represents the patch 102 having a formulation of 7.5 mg of the polysacharride applied with the patch 102 and microporation parameters described above. Each of the three lines 1302, 1304, and 1306 follow the same general trend of increasing to a peak concentration value and then gradually decreasing in concentration. The line 1306 has the highest concentration values, followed by line 1304 and then line 1302.
as §1, with “1320” for “1300”, “1322” for “1302”, “1324” for “1304”, “1326” for “1306”, “1322, 1324,” for “1302, 1304,”, “1322.” for “1302.”

Data set [2] in a line: Blood concentration of peptide (Teriparatide) after microporation patch (FIG. 17). The note with it: hairless, guinea pig, topical, API 0.2 mg/cm^2 + 0.5 mg sucrose; for bioavailability: read-out: bioavailability (BA); for Cmax: read-out: maximum concentration (Cmax). The protocol:
Table 15 identifies two groups (group 4 and group 6) that both use stainless steel filaments 200 and create 200 and 400 pathways, respectively, having applied an energy pulse of 9.3 mJ per filament with a treated area of about 10% per square centimeter of skin for 0.5 cm2 and 1.0 cm^2, respectively. The patch 102 used for the administration of the peptide shown in graph 1700 has a thickness of 38 μm, a weight of 12 g/m^2, a WHC of 4 mg/cm^2, an API of 0.2 mg/cm^2, and a total solid weight of about 0.7 mg/cm^2.
The graph 1700 includes the concentration of the peptide in ng/mL along the y-axis and time in hours (hr) along the x-axis. […] The line 1702 represents the patch 102 and microporation parameters of group 4 described above. The line 1704 represents the patch 102 and microporation parameters of group 6 described above.

The nature of data set [3]: Blood concentration of Somatropin after microporation patch (FIG. 18). The note with it: patch 0.5 mg, 1.0 cm^2. The text has this: The microporation occurs according to the parameters in Table 17. […] 200 Wide filaments are double the width of standard one (2×50 micrometers) so the energy pulse of 5.2 mJ and 9.3 mJ per filament, thus providing the same current density/flux, and similar power used.
The graph 1800 includes the concentration of the peptide in ng/mL along the y-axis and time in hours (hr) along the x-axis. […] The line 1802 represents the group 1 parameters from Tables 17 and 18. The line 1804 represents the group 2 parameters from Tables 17 and 18. The line 1806 represents the group 3 parameters from Tables 17 and 18. The line 1808 represents the group 4 parameters from Tables 17 and 18. Each of the four lines 1802, 1804, 1806, and 1808 follow the same general trend of increasing to a peak concentration value and then gradually decreasing in concentration. The line 1808 generally has the highest concentration values, followed by line 1802, then line 1804, and finally line 1806. It is noted that the line 1804 exceeds line 1806 from between about 2 hours to about 3 hours.

Setting [4] is: 0.2 mg/cm^2, group 4: 200 pores, 0.5 cm^2, 9.3 mJ/filament.
The mark [5] stands for this setting: 0.2 mg/cm^2, group 6: 400 pores, 1.0 cm^2, 9.3 mJ/filament.
Where [6] appears, read: group 1: 400 pores, 5.7 mJ/filament (Table 17).
The mark [7] stands for this setting: group 2: 400 pores, 9.3 mJ/filament.
The mark [8] stands for this setting: group 3: 200 wide pores, 5.2 mJ/filament.
[9] abbreviates: group 4: 200 wide pores, 9.3 mJ/filament.

In the case of `CO[C@H]1O[C@H](COS(=O)(=O)O)[C@@H](O[C@@H]2O[C@@H](C(=O)O)[C@@H](O[C@H]3O[C@H](COS(=O)(=O)O)[C@@H](O[C@@H]4O[C@H](C(=O)O)[C@@H](O[C@H]5O[C@H](COS(=O)(=O)O)[C@@H](O)[C@H](O)[C@H]5NS(=O)(=O)O)[C@H](O)[C@H]4O)[C@H](OS(=O)(=O)O)[C@H]3NS(=O)(=O)O)[C@H](O)[C@H]2OS(=O)(=O)O)[C@H](O)[C@H]1NS(=O)(=O)O` [Fondaparinux], the “area under the curve (AUC)” value in data set [1] (patch 2.5 mg, 200 pathways) turned out to be 72800 ng·h/mL. In addition, the bioavailability in data set [1] (patch 2.5 mg, 200 pathways) was determined as 170.9%; in data set [1] (patch 2.5 mg, 400 pathways), 228.5%; in data set [1] (patch 5.0 mg, 200 pathways), 118.4%; in data set [1] (patch 5.0 mg, 400 pathways) it was 146.9%; in data set [1] (patch 7.5 mg, 200 pathways), 119.2%; in data set [1] (patch 7.5 mg, 400 pathways), 114.1%. Moreover, the maximum concentration in data set [1] (patch 2.5 mg, 200 pathways) amounted to 5.1 µg/mL; in data set [1] (patch 2.5 mg, 400 pathways) it was 8.0 µg/mL; in data set [1] (patch 5.0 mg, 200 pathways), 6.7 µg/mL; in data set [1] (patch 5.0 mg, 400 pathways) it was 10.5 µg/mL; in data set [1] (patch 7.5 mg, 200 pathways), 9.1 µg/mL; in data set [1] (patch 7.5 mg, 400 pathways) it was 11.5 µg/mL. The AUC in data set [1] (patch 2.5 mg, 400 pathways) was 97300 ng·h/mL; in data set [1] (patch 5.0 mg, 200 pathways), 100900 ng·h/mL; in data set [1] (patch 5.0 mg, 400 pathways), 125200 ng·h/mL; in data set [1] (patch 7.5 mg, 200 pathways) it was 152300 ng·h/mL; in data set [1] (patch 7.5 mg, 400 pathways), 145800 ng·h/mL.
As for `CC[C@H](C)[C@H](NC(=O)[C@H](CCC(=O)O)NC(=O)[C@H](CO)NC(=O)[C@@H](NC(=O)[C@@H](N)CO)C(C)C)C(=O)N[C@@H](CCC(N)=O)C(=O)N[C@@H](CC(C)C)C(=O)N[C@@H](CCSC)C(=O)N[C@@H](Cc1cnc[nH]1)C(=O)N[C@@H](CC(N)=O)C(=O)N[C@@H](CC(C)C)C(=O)NCC(=O)N[C@@H](CCCCN)C(=O)N[C@@H](Cc1cnc[nH]1)C(=O)N[C@@H](CC(C)C)C(=O)N[C@@H](CC(N)=O)C(=O)N[C@@H](CO)C(=O)N[C@@H](CCSC)C(=O)N[C@@H](CCC(=O)O)C(=O)N[C@@H](CCCN=C(N)N)C(=O)N[C@H](C(=O)N[C@@H](CCC(=O)O)C(=O)N[C@@H](Cc1c[nH]c2ccccc12)C(=O)N[C@@H](CC(C)C)C(=O)N[C@@H](CCCN=C(N)N)C(=O)N[C@@H](CCCCN)C(=O)N[C@@H](CCCCN)C(=O)N[C@@H](CC(C)C)C(=O)N[C@@H](CCC(N)=O)C(=O)N[C@@H](CC(=O)O)C(=O)N[C@H](C(=O)N[C@@H](Cc1cnc[nH]1)C(=O)N[C@@H](CC(N)=O)C(=O)N[C@@H](Cc1ccccc1)C(=O)O)C(C)C)C(C)C` [Teriparatide], in data set [2] (setting [4]), the AUC stood at 3260 ng·h/mL, the bioavailability is 37.4% and the Cmax is 9.16 ng/mL. Also, in data set [2] (setting [5]), the AUC was found to be 2210 ng·h/mL, the bioavailability stood at 25.4% and the Cmax was determined as 11.2 ng/mL.
Turning to Somatropin, in data set [3] (setting [6]), the AUC was found to be 87.1 ng·h/mL, the Cmax amounted to 20.4 ng/mL, the Tmax amounted to 1.3 h and the “bioavailability (BA)” value was determined as 35.8%. Also, in data set [3] (setting [7]), the AUC was 90.1 ng·h/mL, the Cmax was 16.1 ng/mL, the Tmax was found to be 1.8 h and the “bioavailability (BA)” value stood at 37.0%. In addition, in data set [3] (setting [8]), the area under the curve (AUC) came out at 78.1 ng·h/mL, the Cmax is given as 16.4 ng/mL, the Tmax stood at 1.5 h and the “bioavailability (BA)” value worked out at 32.1%. For the same molecule, in data set [3] (setting [9]), the AUC stood at 94.9 ng·h/mL, the Cmax worked out at 22.6 ng/mL, the Tmax is 1.5 h and the “bioavailability (BA)” value turned out to be 39.0%.
